Experimental data: PubChem BioAssay AID489006 (Sanford-Burnham Center for Chemical Genomics, 2010)
pIC50: −log10 of the molar value. Active and inactive are the calls of the source. The rule behind the calls is not given here.

Test system: Jurkat NF-kB reporter, luminescence
Assay: NF-kB reporter inhibition in Jurkat cells, dose response, selectivity assay for B-cell receptor NF-kB inhibitor project, cell-based, luminescence (AID 489006)

| Compound | IC50 | pIC50 |
| --- | --- | --- |
| O=C(Nc1cccc(S(=O)(=O)Nc2ccc(Cl)cc2)c1)c1ccc(Cl)nc1 | 25.7 µM (inactive) | – |
| C[C@H]1CCC/C=C/C2C[C@H](O)CC2[C@H](O)/C=C/C(=O)O1 (some centres undefined) | > 80 µM (inactive) | – |
| CCOc1ccc(-n2c(-c3ccccc3)c[n+]3c2CCCCC3)cc1 | > 80 µM (inactive) | – |
| CCC(C)(C)c1ccc(OCCCC[n+]2ccccc2)c(C(C)(C)CC)c1 | – | 5.24 |
| O=C(NNC(=O)C12CC3CC(CC(Br)(C3)C1)C2)c1ccccc1F | > 80 µM (inactive) | – |
| CC1CC(C)(C)Nc2ccc(OC(=O)c3ccco3)cc21 (centres undefined) | – | 5.50 |
| Cc1c(CCC(=O)N2CCC(C(=O)O)(c3ccccc3)CC2)c(=O)oc2cc3oc4c(c3cc12)CCCC4 | – | 5.31 |
| O=C(CN1C(=O)c2ccccc2S1(=O)=O)c1ccccc1Cl | – | 5.90 |
| Cn1c(=O)n(C)c2cc(C(=O)Nc3ccc4c(c3)OCO4)ccc21 | > 80 µM (inactive) | – |
| CCn1c(=O)cc(SCC(=O)N2CCC(C)CC2)c2ccccc21 | > 80 µM (inactive) | – |
| COc1ccc(-c2ccc(C(C)=O)cc2)cc1[C@H]1[C@H]2C=CC[C@@H](C)[C@@H]2C(=O)N1Cc1ccccc1 | > 80 µM (inactive) | – |
| Cc1c(CCC(=O)NCCCn2ccnc2)c(=O)oc2c(C)c3oc4c(c3cc12)CCCC4 | – | 4.96 |
| Cc1ccc(-c2nsc3c(N4CCC(C(N)=O)CC4)ncnc23)cc1 | 78.1 µM (inactive) | – |
| O=C(N/N=C/c1ccc(Cl)cc1Cl)c1ccc(-n2cnnn2)cc1 | > 80 µM (inactive) | – |
| C=CCOc1ccc(/C=C2\SC(=S)N(CCC(=O)O)C2=O)cc1 | – | > 6.80 |
| COc1ccc(C(=O)Nc2nnc(SCC(=O)Nc3ccc(NC(C)=O)cc3)s2)c(OC)c1 | > 80 µM (inactive) | – |
| O=C(Nc1cccc(Br)c1)c1ccc2c(c1)SC1=NS(=O)(=O)CCN12 | > 80 µM (inactive) | – |
| Cn1c(=O)cc(Nc2ccccc2)c2c(=O)n(-c3ccccc3)c(=O)n(-c3ccccc3)c21 | 71.9 µM (inactive) | – |
| Cc1nc2cc(-c3ccc(Cl)cc3)nn2c(C)c1CCC(=O)NCc1ccco1 | – | 6.47 |
| Cc1ccc(C)c(OCc2ccc(C(=O)NN)o2)c1 | > 80 µM (inactive) | – |
| C(=N\Nc1nc(Nc2ccccc2)nc(Nc2ccccc2)n1)/c1cccnc1 | > 80 µM (inactive) | – |
| Cc1noc(C)c1CSc1nc2[nH]ncc2c(=O)n1-c1ccccc1 | 34.3 µM (inactive) | – |
| CC1CCN(CCCNC(=O)COc2cc(=O)n(C)c3ccccc23)CC1 | > 80 µM (inactive) | – |
| Cc1cc(OCC(=O)NC2CC2)c2c(C)c(C)c(=O)oc2c1 | > 80 µM (inactive) | – |
| O=C(CCCN1C(=O)/C(=C/c2ccccc2Cl)SC1=S)Nc1ccccn1 | – | 5.02 |

| Compound | IC50 | pIC50 |
| --- | --- | --- |
| O=S(=O)(c1cnc(Cl)c(Cl)c1)N1CCCc2ccccc21 | – | 4.73 |
| CC(C)N1C(=O)S/C(=C/c2ccc3c(c2)n(C)c(=O)n3C)C1=O | > 80 µM (inactive) | – |
| CC1=CC(C)(C)Nc2ccc(OC(=O)C(C)N3C(=O)c4ccccc4C3=O)cc21 (centres undefined) | – | 5.92 |
| C=CCOc1ccccc1CN(C(=O)CCl)c1ccc2c(c1)OCO2 | – | 5.77 |
| COc1ccc(C(=O)Nc2ccccc2C(=O)NCc2ccco2)cc1OC | 61.7 µM (inactive) | – |
| COc1ccc(OCc2cccc(C(=O)Nc3cc(C)on3)c2)cc1 | – | 5.42 |
| CCOc1ccc(-c2cc(CCCC(=O)NCCCOC)no2)cc1 | > 80 µM (inactive) | – |
| Cc1cc(C)cc(OCc2nnc(SCC(=O)c3ccccc3)o2)c1 | > 80 µM (inactive) | – |
| O=C(O)CCSc1ncnc2sc(-c3ccccc3)cc12 | – | 5.97 |
| CCOc1ccc(-c2nc(CSCC(=O)NC3CC3)c(C)o2)cc1 | > 80 µM (inactive) | – |
| CC(=C\c1ccccc1)/C=C1/SC(=O)N(CCCC(=O)Nc2ccc(C(=O)O)cc2)C1=O | > 80 µM (inactive) | – |
| N=c1ccn(Cc2ccccc2Cl)cc1 | > 80 µM (inactive) | – |
| Cc1ccc(-c2nc(C(=O)NCC3CCCO3)cc3c2[nH]c2ccccc23)cc1 (centres undefined) | 23.4 µM (inactive) | – |
| CCc1cccc(NC(=O)c2ccc(CNc3c(N4CCCC4)c(=O)c3=O)cc2)c1 | > 80 µM (inactive) | – |
| CC(=O)c1cn(CCOc2cc(C)ccc2C)c2ccccc12 | > 80 µM (inactive) | – |
| COC(=O)c1c(NC(=O)c2cccc([N+](=O)[O-])c2)sc(C(N)=O)c1C | > 80 µM (inactive) | – |
| N=c1c2c(n(Cc3cccc(Cl)c3)c3c1CCC3)CCCC2 | 27.6 µM (inactive) | – |
| CCN1C(=O)c2cccc3c(S(=O)(=O)N4CCC(C)CC4)ccc1c23 | > 80 µM (inactive) | – |
| COc1ccccc1/C=C1\SC(=S)N(CCC(=O)Nc2nnc(C)s2)C1=O | > 80 µM (inactive) | – |
| CN(C)CCCN=Cc1c(-c2ccccc2)[nH]n(-c2nc3ccccc3s2)c1=O | – | 6.06 |
| COc1ccc2nc(C)cc(Sc3nc4ccccc4s3)c2c1 | – | 5.60 |
| COc1cccc(/C=C2\SC(=S)N(CCCC(=O)NC3=NCCS3)C2=O)c1 | 25.9 µM (inactive) | – |
| CCN1CCN(C(=O)CSc2cc(=O)n(CC)c3ccccc23)CC1 | > 80 µM (inactive) | – |
| COc1ccc2nc(Sc3c([N+](=O)[O-])nc(C)n3Cc3ccccc3)[nH]c2c1 | – | 4.91 |
| CC1CC(C)CN(S(=O)(=O)c2ccc(C(=O)NCCCn3ccnc3)cc2)C1 (centres undefined) | 54.6 µM (inactive) | – |

| Compound | IC50 | pIC50 |
| --- | --- | --- |
| C=CCn1c(O)c(C(CC)=NC(C)c2ccccc2)c(=O)[nH]c1=O (centres undefined) | 51.3 µM (inactive) | – |
| COc1ccc(OC)c(S(=O)(=O)Nc2ccc(-c3ccc4nnc(C)n4n3)cc2)c1 | – | 4.94 |
| COc1ccc(CC(=O)Nc2cccc(-c3ccc4nnc(C)n4n3)c2)cc1 | > 80 µM (inactive) | – |
| COc1cccc(/C=C2/SC(=S)N(CCCC(=O)Nc3ccc(O)cc3)C2=O)c1 | 29.5 µM (inactive) | – |
| Cc1ccc(C(=O)N2CCCC(c3ccc(Cl)cc3)=N2)cc1 | > 80 µM (inactive) | – |
| COc1ccc(C=C(C(C)=O)C(C)=O)cc1OC | – | 5.21 |
| CC1Cc2ccccc2N1S(=O)(=O)c1cnc(Cl)c(Cl)c1 (centres undefined) | 31.6 µM (inactive) | – |
| CCc1ccc(/C=C2/SC(=S)N(CCC(=O)Nc3ccc(C(=O)O)cc3)C2=O)cc1 | > 80 µM (inactive) | – |
| ClCc1nnc(-c2ccccc2)o1 | – | 4.98 |
| Cc1ccc(S(=O)(=O)CC2CSc3nc4ccccc4n32)cc1 (centres undefined) | > 80 µM (inactive) | – |
| O=C(CCCN1C(=O)/C(=C/c2ccccc2Cl)SC1=S)NNC(=O)c1ccc(Cl)cc1Cl | – | 6.12 |
| NC(=O)C1CCN(C(=O)COc2ccc3ccccc3c2Br)CC1 | > 80 µM (inactive) | – |
| CC1CCN(c2c(NCc3ccc(C(=O)N4c5ccccc5CC4C)cc3)c(=O)c2=O)CC1 (centres undefined) | > 80 µM (inactive) | – |
| O=C(Cc1cccc2ccccc12)Nc1ccc(-c2cc3ccccc3oc2=O)cc1 | – | 4.83 |
| Cc1ccccc1-n1c(SCc2c(C)noc2C)nnc1-c1c[nH]c2ccccc12 | > 80 µM (inactive) | – |
| CCCCCOc1ccc(NC(=O)C(=O)NCCCn2ccnc2)cc1 | > 80 µM (inactive) | – |
| COc1ccc(/C=N/OCC(=O)NC(c2ccccc2)c2ccccc2)cc1OC | > 80 µM (inactive) | – |
| CCCCCC/C=C/c1ccc(OC)c([C@H]2[C@H]3C=CC[C@@H](C)[C@@H]3C(=O)N2Cc2ccccc2)c1 | > 80 µM (inactive) | – |
| CC(=O)Nc1ccc(Nc2nc(-c3sc(NC(C)=O)nc3C)cs2)cc1 | – | 5.06 |
| CN(CC1CCCO1)S(=O)(=O)c1ccc(C(=O)Nc2nc3cc4c(cc3s2)OCO4)cc1 (centres undefined) | > 80 µM (inactive) | – |
| COc1ccccc1/C=C1\SC(=S)N(CCC(=O)NC2=NCCS2)C1=O | 28.3 µM (inactive) | – |
| Cc1cnc(NC(=O)Nc2ccc(Cl)cc2)s1 | > 80 µM (inactive) | – |
| CCOc1ccc(-c2cc(CCCC(=O)NCc3ccc(C)cc3)no2)cc1 | – | 5.18 |
| Cc1cc(C)cc(N2C(=O)NC(=O)/C(=C\c3cccn3-c3ccccc3)C2=O)c1 | – | 4.79 |
| COC(=O)c1[nH]c2ccc(C)cc2c1NC(=O)Nc1ccccc1OC | 55.2 µM (inactive) | – |

| Compound | IC50 | pIC50 |
| --- | --- | --- |
| O=c1c(C=NCCCO)c(-c2ccccc2)[nH]n1-c1nc2ccccc2s1 | – | 5.46 |
| CN1C(=O)c2cccc3c(S(=O)(=O)Nc4ccccc4F)ccc1c23 | 35.8 µM (inactive) | – |
| Cc1cccn2c(=O)c3cc(C(=O)NC4CCCCC4)c(=N)n(CCN4CCOCC4)c3nc12 | > 80 µM (inactive) | – |
| Cc1cc(OCC(=O)N2CCC(C(N)=O)CC2)c2c3c(c(=O)oc2c1)CCCC3 | > 80 µM (inactive) | – |
| CCN(CC)c1ccc(/C=C2/C(=O)ON=C2C)cc1 | – | 4.71 |
| CCn1c(=O)c2cc(C(=O)NCc3cccs3)sc2c2ccccc21 | > 80 µM (inactive) | – |
| O=C(Nc1ccc(NC(=O)c2cc3ccccc3o2)cc1)c1ccc2c(c1)OCCO2 | > 80 µM (inactive) | – |
| COc1ccc(/C=C2\SC(=S)N(CCCC(=O)NNC(=O)c3ccccc3O)C2=O)cc1 | – | 6.24 |
| O=C(O)COc1ccc(-c2nccc(-c3ccccn3)n2)cc1 | – | 6.66 |
| N#Cc1ccccc1COc1ccc(/C=C/C(=O)O)cc1 | – | 5.83 |
| CCn1c(=O)cc(SCC(=O)N2CCN(C)CC2)c2ccccc21 | > 80 µM (inactive) | – |
| Cc1ccc2nc(NC(=O)CSCC(=O)OCC(=O)c3ccc(Br)cc3)sc2c1 | – | 6.48 |
| CCOc1ccc(-n2c(SCC(=O)Nc3ccc4c(c3)OCCO4)nc3c(c2=O)SCC3)cc1 | > 80 µM (inactive) | – |
| CCn1c(=S)[nH]c2cc(S(=O)(=O)N3CCCCC3)ccc21 | > 80 µM (inactive) | – |
| COc1ccc(-c2noc(N3CCC(C(=O)Nc4ccc(F)cc4F)CC3)n2)cc1 | > 80 µM (inactive) | – |
| N=c1c(C(=O)NC2CCCC2)cc2c(=O)n3ccccc3nc2n1CCN1CCOCC1 | > 80 µM (inactive) | – |
| CCOC(=O)C1CCN(c2ncnc3c2cnn3-c2ccc(Cl)cc2)CC1 | – | 6.41 |
| CCc1ccc(/C=C2/SC(=S)N(CCC(=O)Nc3cccnc3)C2=O)cc1 | > 80 µM (inactive) | – |
| CC(=O)C1=NN(c2ccccc2)C(c2cccs2)N1c1ccc(N(C)C)cc1 (centres undefined) | > 80 µM (inactive) | – |
| Cc1c(NC(=O)/C=C/c2cn(-c3ccccc3)nc2-c2ccccc2)c(=O)n(-c2ccccc2)n1C | > 80 µM (inactive) | – |
| CC1CCN(C(=O)CCCOc2cc(=O)n(C)c3ccccc23)CC1 | > 80 µM (inactive) | – |
| CNC(=O)c1cc(Nc2nnc(-c3ccc(O)cc3)c3ccccc23)ccc1OC | > 80 µM (inactive) | – |
| Cc1ccc(/C=C2\SC(=S)N(CCCC(=O)Nc3ccc(O)cc3)C2=O)cc1 | – | 4.72 |
| Cn1nc(-c2ccc(Cl)cc2)c2cc(C(=O)N3CCCC3)sc21 | > 80 µM (inactive) | – |
